A value given as a limit tells only on which side of the number the result lay.

For this data set the following is noted: pampa; 60.0 min; 50.0 µM.
One may read the Papp as a coefficient for how fast a substance crosses the barrier. The low end stands for poor permeation, the high end for ready permeation. Regarding `CC(C)(C)c1ccc2c(c1)CC[C@H]2NC(=O)Nc1cccc2[nH]ncc12`, the apparent permeability (Papp) was under 1 ×10⁻⁶ cm/s.
As for `Cc1ccc(-c2c(C(=O)CCl)n(CCCO)c3ncnc(N)c23)cc1`, the Papp was 76 ×10⁻⁶ cm/s.
The value for `C1=C(c2cnc[nH]2)c2ccsc2CC1` was 5 ×10⁻⁶ cm/s; that for `CSc1nc(N)cc(Oc2ccc(-c3nc(Nc4cccc(C(F)(F)F)c4)n[nH]3)cc2)n1` was 53.8 ×10⁻⁶ cm/s.
The result for `C[C@@H]1COCCN1c1cc(C2(S(C)(=N)=O)CC2)nc(-c2ccnc3[nH]ccc23)n1` (stereo not given in full) reads 33 ×10⁻⁶ cm/s; that for `Nc1ccc(-c2ccc3ncc4ccc(=O)n(-c5cccc(C(F)(F)F)c5)c4c3c2)cn1`, over 300 ×10⁻⁶ cm/s.
The result for `CNC(=O)C1CCN(C(=O)c2ccc(-c3ncc4cnc(-c5ccccc5)cn34)cc2)CC1` reads 12 ×10⁻⁶ cm/s.
`CC[C@@]1(O)C(=O)OCc2c1cc1n(c2=O)Cc2cc3ccccc3nc2-1` registered a Papp of 23 ×10⁻⁶ cm/s.
As to `CS/C=C/C(=O)O[C@@H]1CCC2=CC(=O)C(=C(C)C)C[C@]2(C)[C@H]1C`, the Papp amounted to 77 ×10⁻⁶ cm/s.
`Nc1nc2c(c(N3CCNCC3)n1)CCC1=C2[C@@H]2CCCC[C@@H]2O1` returned a Papp of 30 ×10⁻⁶ cm/s.
The value for `COc1ccc(-c2noc(CC(=O)O)c2-c2ccc(OC)cc2)cc1` was under 1 ×10⁻⁶ cm/s; that for `O=C(CCCN1CCC(O)(c2ccc(Cl)cc2)CC1)c1ccc(F)cc1` was 217 ×10⁻⁶ cm/s.
Molecule `O=C(Nc1ccccc1)N1CCC(Cc2cnc3ccccc3c2)CC1` came in with a Papp of over 300 ×10⁻⁶ cm/s.
Take `O=C(NC1CCC(O)CC1)c1ccc(-c2ncc3cnc(-c4cccc(F)c4)cn23)cc1` (stereo not given): the Papp is 59 ×10⁻⁶ cm/s.
`COc1ccc(Cn2c(-c3ccccc3)c(-c3ccccc3)c3c(=N)n(CC4CCCO4)cnc32)cc1` (stereo not given) came in with a Papp of 297 ×10⁻⁶ cm/s.
`CCCN(CCC)CCc1cccc2c1CC(=O)N2` displayed a Papp of 34 ×10⁻⁶ cm/s.
As for `CC(=O)O[C@H]1C[C@@H](C)O[C@H]2O[C@@H]3CC4CC[C@@H]5C(CC[C@]6(C)[C@@H](C7=CC(=O)OC7)CC[C@]56O)[C@@]4(C=O)C[C@H]3O[C@]21O` (stereo not given in full), the apparent permeability (Papp) worked out at 54 ×10⁻⁶ cm/s.
The value for `CCC(=O)O[C@@H](OP(=O)(CCCCc1ccccc1)CC(=O)N1C[C@H](C2CCCCC2)C[C@H]1C(=O)O)C(C)C` (stereo not given in full) was 118 ×10⁻⁶ cm/s.
In turn, `COc1cc(Cc2cnc(N)nc2N)c(C(C)C)cc1OC` gave a Papp of 48 ×10⁻⁶ cm/s.
The value for `Cn1nnnc1Sc1ncnc2scc(-c3ccc[nH]3)c12` was 126 ×10⁻⁶ cm/s; that for `Nc1c(C(=O)Nc2ccc(Cl)c(C(F)(F)F)c2)sc2nc3c(cc12)N1CCC3CC1` was 213 ×10⁻⁶ cm/s.
Turning to `CO/N=C(/C(=O)N[C@@H]1C(=O)N2C(C(=O)O)=C(COC(N)=O)CS[C@H]12)c1ccco1`, the Papp was 2 ×10⁻⁶ cm/s.
For `COC(=O)c1cccc(Cn2cnc3c(c(-c4ccccc4)c(-c4ccccc4)n3CCc3ccccc3)c2=N)c1`, the Papp amounted to 27 ×10⁻⁶ cm/s.
`Cn1nnnc1Sc1ncnc2scc(-c3ccc(C(F)(F)F)cc3)c12` had a Papp of over 300 ×10⁻⁶ cm/s.
The value for `COC1CC(=C(c2cccs2)c2cccs2)C[N+](C)(C)C1` (stereo not given) was under 1 ×10⁻⁶ cm/s.
For the molecule `CC1(C)CC(=O)c2c(C(F)(F)F)nn(-c3ccc(C(N)=O)c(NC4CCC(O)CC4)c3)c2C1` (stereo not given), the Papp is 21.5 ×10⁻⁶ cm/s.
Consider `O=C1Nc2ccc(C(=O)c3ccco3)cc2/C1=C/c1cc(Cl)c(O)c(Cl)c1`, for which the Papp came to 38 ×10⁻⁶ cm/s.
Turning to `CN[C@H](CC(C)C)C(=O)N[C@H]1C(=O)N[C@@H](CC(N)=O)C(=O)N[C@H]2C(=O)N[C@H]3C(=O)N[C@H](C(=O)N[C@H](C(=O)O)c4cc(O)cc(O)c4-c4cc3ccc4O)[C@H](O[C@H]3C[C@](C)(N)[C@@H](O)[C@H](C)O3)c3ccc(c(Cl)c3)Oc3cc2cc(c3O[C@@H]2O[C@H](CO)[C@@H](O)[C@H](O)[C@H]2O[C@H]2C[C@](C)(NCc3ccc(-c4ccc(Cl)cc4)cc3)[C@@H](O)[C@H](C)O2)Oc2ccc(cc2Cl)[C@H]1O`, the Papp was 12 ×10⁻⁶ cm/s.
The value for `N=c1c2c(-c3ccccc3)c(-c3ccccc3)n(Cc3ccccc3)c2ncn1CCCCO` was 259 ×10⁻⁶ cm/s; that for `Cn1nnnc1Sc1ncnc2scc(-c3ccc(C(=O)OC(C)(C)C)cc3)c12` was 72 ×10⁻⁶ cm/s.
The value for `N=c1c2c(-c3ccccc3)c(-c3ccccc3)n(CCc3ccccc3)c2ncn1CC1CCCO1` (stereo not given) was 269 ×10⁻⁶ cm/s.
The value for `COc1cc2nc(N3CCC(N4CCCCC4)CC3)nc(NC3CCCCCC3)c2cc1OC` was 116 ×10⁻⁶ cm/s; that for `COc1ccc2c(c[n+](C)c3c4cc5c(cc4ccc23)OCO5)c1OC` was 121 ×10⁻⁶ cm/s; that for `CC(C)c1cc(-c2n[nH]c(=O)n2-c2ccc3c(ccn3C)c2)c(O)cc1O` was 79.5 ×10⁻⁶ cm/s.
As to `CN(C)CCN(C)C(=O)c1ccc(-c2ncc3cnc(-c4cccc(F)c4)cn23)cc1`, the Papp amounted to 90 ×10⁻⁶ cm/s.
`CNCCC=C1c2ccccc2CCc2ccccc21` registered a Papp of 253 ×10⁻⁶ cm/s.
Consider `CCC1C(C)=NN=C(c2ccc(OC)c(OC)c2)c2cc(OC)c(OC)cc21` (stereo not given), for which the Papp amounted to 91 ×10⁻⁶ cm/s.
The value for `NC(=O)c1cccc(-c2cc(Nc3ccc(OC(F)(F)F)cc3)ncn2)c1` was 94.4 ×10⁻⁶ cm/s; that for `N#Cc1ccc(C(=O)N2CCC3(CC2)N=C(N)c2c(F)ccc(F)c2N3)cn1` was 4 ×10⁻⁶ cm/s.
For the molecule `C[n+]1c2cc(N)ccc2cc2ccc(N)cc21`, the Papp was under 1 ×10⁻⁶ cm/s.
For `COCCNC(=O)c1ccc(-c2ncc3cnc(-c4cccc(F)c4)cn23)cc1`, the Papp came out at 95 ×10⁻⁶ cm/s.
In turn, `COc1ccc(CCn2cnc3c(c(-c4ccccc4)cn3Cc3ccccc3)c2=N)cc1OC` displayed an apparent permeability coefficient (Papp) of 284 ×10⁻⁶ cm/s.
As to `CCCCCCCCCC(=O)O[C@H]1CC[C@H]2[C@@H]3CCC4=CC(=O)CC[C@@H]4[C@H]3CC[C@]12C`, the Papp is under 1 ×10⁻⁶ cm/s.
The result for `O=C(Nc1ccc2[nH]c(=O)oc2c1)C(=O)N1CCC(Cc2ccc(F)cc2)CC1` reads 207 ×10⁻⁶ cm/s; that for `Cc1ccnc2c1NC(=O)c1cccnc1N2C1CC1`, 26 ×10⁻⁶ cm/s.
Take `COc1ccc(-n2nc(C(F)F)cc2-c2ccc(S(C)=O)cc2)cc1` (stereo not given): the Papp amounted to 115 ×10⁻⁶ cm/s.
The result for `Cn1nnnc1Sc1ncnc2scc(-c3cccc(F)c3)c12` reads over 300 ×10⁻⁶ cm/s.
`CC(C)CN(CC(=O)N(CCCN1CCCC1=O)CC(N)=O)C(=O)CNCCc1ccccc1F` had a Papp of under 1 ×10⁻⁶ cm/s.
Molecule `N=c1c2c(-c3ccccc3)cn(Cc3ccc(Br)cc3)c2ncn1CCCN1CCN(c2ccccc2)CC1` returned a Papp of 151 ×10⁻⁶ cm/s.
`O=C1C[C@@]2(C(=O)N1)C(=O)N(Cc1ccc(Br)cc1F)C(=O)c1cccn12` registered an apparent permeability coefficient (Papp) of 21 ×10⁻⁶ cm/s.
The molecule `CC(/C=C/[C@@H]1C[C@]1(C)c1ccc2c(c1)C(C)(C)CCC2(C)C)=C\C(=O)O` returned an apparent permeability coefficient (Papp) of 63 ×10⁻⁶ cm/s.
Molecule `COc1ccc(N(C)c2nc(C)nc3ccccc23)cc1` came in with a Papp of 220 ×10⁻⁶ cm/s.
In turn, `O=C(CCl)Nc1cccc(NC2=NS(=O)(=O)c3ccccc32)c1` gave a Papp of 5.9 ×10⁻⁶ cm/s.
The result for `COc1ccc(CCNC(=O)CCc2c(C)c3cc4c(C)coc4cc3oc2=O)cc1` reads 279 ×10⁻⁶ cm/s; that for `CC(=O)Nc1ccc(OC(=O)c2ccccc2OC(C)=O)cc1`, 27 ×10⁻⁶ cm/s.
Regarding `CCCN[C@H]1CCc2nc(N)sc2C1`, the Papp worked out at 4 ×10⁻⁶ cm/s.
Take `CC1=C2C[C@H]3[C@@H](CC[C@@H]4C[C@H](NS(C)(=O)=O)CC[C@@]43C)[C@@H]2CC[C@@]2(C1)O[C@@H]1C[C@H](C)CN[C@H]1[C@H]2C`: the Papp is 132 ×10⁻⁶ cm/s.
`Cc1cccc(NC(=O)c2ccc(C(F)(F)F)cc2C(=O)O)n1` returned a Papp of under 1 ×10⁻⁶ cm/s.
Take `Cn1cc(C2=C(c3cn(CCCSC(=N)N)c4ccccc34)C(=O)NC2=O)c2ccccc21`: the Papp was under 1 ×10⁻⁶ cm/s.
With `CCO[C@@H]1OC(=O)C[C@@H]1NC(=O)[C@@H]1CCCN2C(=O)CC[C@H](NC(=O)c3nccc4ccccc34)C(=O)N12`, the Papp was under 1 ×10⁻⁶ cm/s.

Values taken from PubChem BioAssay AID1845228.
